# Source: US20050049198A1, “Method of modulating the activity of calcium channels in cardiac cells and reagents therefor” (priority 2001, published 2005)
# Entries after “also recorded” stand apart in the source; their conditions may differ. Where no end group is shown, it is not given here. [ ]: non-standard residue; d: D form.
# Legend:
# [1] = tested on: cardiac RyR2 channel; assay: Single channel activity of cardiac RyR2 channels in lipid bilayers; assay type: biochemical, sheep; conditions: for effect on cardiac RyR2 channel activity: cis 10^−7M Ca2+
# Experimental: SR vesicles were isolated from sheep heart as described by Layer et al. (1995, J. Membr. Biol. 147:7-22).
# Experiments were carried out at 20° C. to 25° C., essentially according to Ahern et al. (1994, FEBS Lett. 352:369-374) and Layer et al. (1995, J. Membr. Biol. 147:7-22). Bilayers were formed from phosphatidylethanolamine, phosphatidylserine and phosphatidylcholine (5:3:2 w/w/w) (Avanti Polar Lipids, Alabaster, Ala.) across an aperture with a diameter of […] in the wall of a 1.0 ml Delrin cup (Cadillac Plastics, Australia). Terminal cisternae (TC) vesicles (final concentration, 10 μg/ml) and drugs were added to the cytoplasmic (i.e. cis) chamber. The bilayer potential was controlled, and single channel activity recorded, using an Axopatch 200A amplifier (Axon Instruments, Foster City, Calif.). For experimental purposes, the cis chamber was held at ground and the voltage of the lumen (i.e. trans) chamber controlled. Bilayer potential is expressed in the conventional way as Vcis−Vtrans, (i.e. Vcytoplasm−Vlumen).
# Bilayers were formed as described above and vesicles were incorporated into the bilayer using a cis solution containing 230 mM Cs methanesulphonate (MS), 20 mM CsCl, 1 mM CaCl2 and 10 mM N-tris[hydroxymethyl]methyl-2-aminoethanesulfonic acid (TES, pH 7.4 with CsOH), and a trans solution containing 30 mM Cs MS, 20 mM CsCl, 1 mM CaCl2 and 10 mM TES (pH7.4).
# To prevent incorporation of multiple channels into the bilayer, the cis solution was replaced by perfusion of the cis chamber when channel activity was observed. The cis perfusion solution was identical to the initial cis solution, except that the [Ca^2+] was 3×10^−7M, buffered using 1 mM BAPTA. CsMS (200 mM) was added to the trans chamber following channel incorporation to produce symmetrical solutions.
# Bilayer potential was changed every 30 s, over 2 min following each addition of peptide to the cis chamber. Control activity was recorded for 2 min after addition of 200 mM CsMS to the trans chamber. Activity was then recorded for 2 min after cis addition of each aliquot of peptide (six different peptide concentrations were examined in each channel). Peptides were perfused out of the cis chamber, and the recovery recorded. Channels were finally exposed to 30 μM ruthenium red.
# Currents were filtered at 1 kHz (8-pole low pass Bessel, −3 dB) and digitized at 5 kHz. Analysis of single channel records (using Channel 2, developed by P W Gage and M Smith) yielded channel open probability (Po), frequency of events (Fo), open times, closed times and mean open or closed times (To or Tc) as well as mean current (I′). The event discriminator was set above the baseline noise at ˜20% of the maximum current, rather than the usual 50%, and so openings to both sub conductance and maximum conductance levels were included in the analysis. Channel activity was analyzed over two 30 s periods of continuous activity at +40 mV and two 30 s periods of continuous activity at −40 mV.
# The Ca^2+ concentration in the cis solution was either buffered at 100 nM or was adjusted to 100 μM by adding an CaCl2 to the cis solution in the absence of BAPTA.
# [2] = tested on: RyR channels of cardiac SR vesicles; assay: Ca2+ release from cardiac SR vesicles; assay type: biochemical, sheep; conditions: for initial rate of Ca2+ release, peptide alone: 30 μM and 50 μM peptide, no additional activating factors; for Ca2+-activated Ca2+ release / caffeine-activated Ca2+ release: 20 μM Ca2+ or 2 mM caffeine plus peptide; for rate of Ca2+ release in the absence of activating Ca2+ or caffeine: high concentrations of >30 μM peptide
# Experimental: Extravesicular [Ca^2+] was monitored at 710 nm using either a Cary 50 or Cary 100 spectrophotometer. […] Vesicles were loaded with Ca^2+ by 4 additions of 3 μl aliquots of 5 mM CaCl2, to a final concentration of 7.5 μM Ca^2+. Thapsigargin (200 nM) was then added to block the SR Ca^2+ ATPase. Finally the peptides were added either alone, or with 20 μM Ca^2+ or 2 mM caffeine. The rate of Ca^2+ release in the presence of thapsigargin was measured just before addition of the activating agents and initial rates of Ca^2+ release were measured immediately after addition of the activating agents. The specific blocker of RyR activity, […] ruthenium red, was then added to confirm that Ca^2+ release was through RyR channels. The Ca^+ ionophore A23187 (3 μg/ml) was added at the end of the experiment to determine the amount of Ca^2+ remaining in the SR vesicles. When Ca^2+ release was complete, the Ca^2+ transient following addition of the ionophore, was indicative of the fraction of vesicles containing Ca^2+ that could not be released through RyR channel (presumably vesicles from longitudinal SR that lack RyR channels). […] Experiments were repeated on vesicles isolated from 3 different sheep heart preparations.
# [3] = target: cardiac SR (Homo sapiens, UniProt Q92736); conditions: cited from earlier work
# Sequence of cardiac SR (Q92736 whole entry): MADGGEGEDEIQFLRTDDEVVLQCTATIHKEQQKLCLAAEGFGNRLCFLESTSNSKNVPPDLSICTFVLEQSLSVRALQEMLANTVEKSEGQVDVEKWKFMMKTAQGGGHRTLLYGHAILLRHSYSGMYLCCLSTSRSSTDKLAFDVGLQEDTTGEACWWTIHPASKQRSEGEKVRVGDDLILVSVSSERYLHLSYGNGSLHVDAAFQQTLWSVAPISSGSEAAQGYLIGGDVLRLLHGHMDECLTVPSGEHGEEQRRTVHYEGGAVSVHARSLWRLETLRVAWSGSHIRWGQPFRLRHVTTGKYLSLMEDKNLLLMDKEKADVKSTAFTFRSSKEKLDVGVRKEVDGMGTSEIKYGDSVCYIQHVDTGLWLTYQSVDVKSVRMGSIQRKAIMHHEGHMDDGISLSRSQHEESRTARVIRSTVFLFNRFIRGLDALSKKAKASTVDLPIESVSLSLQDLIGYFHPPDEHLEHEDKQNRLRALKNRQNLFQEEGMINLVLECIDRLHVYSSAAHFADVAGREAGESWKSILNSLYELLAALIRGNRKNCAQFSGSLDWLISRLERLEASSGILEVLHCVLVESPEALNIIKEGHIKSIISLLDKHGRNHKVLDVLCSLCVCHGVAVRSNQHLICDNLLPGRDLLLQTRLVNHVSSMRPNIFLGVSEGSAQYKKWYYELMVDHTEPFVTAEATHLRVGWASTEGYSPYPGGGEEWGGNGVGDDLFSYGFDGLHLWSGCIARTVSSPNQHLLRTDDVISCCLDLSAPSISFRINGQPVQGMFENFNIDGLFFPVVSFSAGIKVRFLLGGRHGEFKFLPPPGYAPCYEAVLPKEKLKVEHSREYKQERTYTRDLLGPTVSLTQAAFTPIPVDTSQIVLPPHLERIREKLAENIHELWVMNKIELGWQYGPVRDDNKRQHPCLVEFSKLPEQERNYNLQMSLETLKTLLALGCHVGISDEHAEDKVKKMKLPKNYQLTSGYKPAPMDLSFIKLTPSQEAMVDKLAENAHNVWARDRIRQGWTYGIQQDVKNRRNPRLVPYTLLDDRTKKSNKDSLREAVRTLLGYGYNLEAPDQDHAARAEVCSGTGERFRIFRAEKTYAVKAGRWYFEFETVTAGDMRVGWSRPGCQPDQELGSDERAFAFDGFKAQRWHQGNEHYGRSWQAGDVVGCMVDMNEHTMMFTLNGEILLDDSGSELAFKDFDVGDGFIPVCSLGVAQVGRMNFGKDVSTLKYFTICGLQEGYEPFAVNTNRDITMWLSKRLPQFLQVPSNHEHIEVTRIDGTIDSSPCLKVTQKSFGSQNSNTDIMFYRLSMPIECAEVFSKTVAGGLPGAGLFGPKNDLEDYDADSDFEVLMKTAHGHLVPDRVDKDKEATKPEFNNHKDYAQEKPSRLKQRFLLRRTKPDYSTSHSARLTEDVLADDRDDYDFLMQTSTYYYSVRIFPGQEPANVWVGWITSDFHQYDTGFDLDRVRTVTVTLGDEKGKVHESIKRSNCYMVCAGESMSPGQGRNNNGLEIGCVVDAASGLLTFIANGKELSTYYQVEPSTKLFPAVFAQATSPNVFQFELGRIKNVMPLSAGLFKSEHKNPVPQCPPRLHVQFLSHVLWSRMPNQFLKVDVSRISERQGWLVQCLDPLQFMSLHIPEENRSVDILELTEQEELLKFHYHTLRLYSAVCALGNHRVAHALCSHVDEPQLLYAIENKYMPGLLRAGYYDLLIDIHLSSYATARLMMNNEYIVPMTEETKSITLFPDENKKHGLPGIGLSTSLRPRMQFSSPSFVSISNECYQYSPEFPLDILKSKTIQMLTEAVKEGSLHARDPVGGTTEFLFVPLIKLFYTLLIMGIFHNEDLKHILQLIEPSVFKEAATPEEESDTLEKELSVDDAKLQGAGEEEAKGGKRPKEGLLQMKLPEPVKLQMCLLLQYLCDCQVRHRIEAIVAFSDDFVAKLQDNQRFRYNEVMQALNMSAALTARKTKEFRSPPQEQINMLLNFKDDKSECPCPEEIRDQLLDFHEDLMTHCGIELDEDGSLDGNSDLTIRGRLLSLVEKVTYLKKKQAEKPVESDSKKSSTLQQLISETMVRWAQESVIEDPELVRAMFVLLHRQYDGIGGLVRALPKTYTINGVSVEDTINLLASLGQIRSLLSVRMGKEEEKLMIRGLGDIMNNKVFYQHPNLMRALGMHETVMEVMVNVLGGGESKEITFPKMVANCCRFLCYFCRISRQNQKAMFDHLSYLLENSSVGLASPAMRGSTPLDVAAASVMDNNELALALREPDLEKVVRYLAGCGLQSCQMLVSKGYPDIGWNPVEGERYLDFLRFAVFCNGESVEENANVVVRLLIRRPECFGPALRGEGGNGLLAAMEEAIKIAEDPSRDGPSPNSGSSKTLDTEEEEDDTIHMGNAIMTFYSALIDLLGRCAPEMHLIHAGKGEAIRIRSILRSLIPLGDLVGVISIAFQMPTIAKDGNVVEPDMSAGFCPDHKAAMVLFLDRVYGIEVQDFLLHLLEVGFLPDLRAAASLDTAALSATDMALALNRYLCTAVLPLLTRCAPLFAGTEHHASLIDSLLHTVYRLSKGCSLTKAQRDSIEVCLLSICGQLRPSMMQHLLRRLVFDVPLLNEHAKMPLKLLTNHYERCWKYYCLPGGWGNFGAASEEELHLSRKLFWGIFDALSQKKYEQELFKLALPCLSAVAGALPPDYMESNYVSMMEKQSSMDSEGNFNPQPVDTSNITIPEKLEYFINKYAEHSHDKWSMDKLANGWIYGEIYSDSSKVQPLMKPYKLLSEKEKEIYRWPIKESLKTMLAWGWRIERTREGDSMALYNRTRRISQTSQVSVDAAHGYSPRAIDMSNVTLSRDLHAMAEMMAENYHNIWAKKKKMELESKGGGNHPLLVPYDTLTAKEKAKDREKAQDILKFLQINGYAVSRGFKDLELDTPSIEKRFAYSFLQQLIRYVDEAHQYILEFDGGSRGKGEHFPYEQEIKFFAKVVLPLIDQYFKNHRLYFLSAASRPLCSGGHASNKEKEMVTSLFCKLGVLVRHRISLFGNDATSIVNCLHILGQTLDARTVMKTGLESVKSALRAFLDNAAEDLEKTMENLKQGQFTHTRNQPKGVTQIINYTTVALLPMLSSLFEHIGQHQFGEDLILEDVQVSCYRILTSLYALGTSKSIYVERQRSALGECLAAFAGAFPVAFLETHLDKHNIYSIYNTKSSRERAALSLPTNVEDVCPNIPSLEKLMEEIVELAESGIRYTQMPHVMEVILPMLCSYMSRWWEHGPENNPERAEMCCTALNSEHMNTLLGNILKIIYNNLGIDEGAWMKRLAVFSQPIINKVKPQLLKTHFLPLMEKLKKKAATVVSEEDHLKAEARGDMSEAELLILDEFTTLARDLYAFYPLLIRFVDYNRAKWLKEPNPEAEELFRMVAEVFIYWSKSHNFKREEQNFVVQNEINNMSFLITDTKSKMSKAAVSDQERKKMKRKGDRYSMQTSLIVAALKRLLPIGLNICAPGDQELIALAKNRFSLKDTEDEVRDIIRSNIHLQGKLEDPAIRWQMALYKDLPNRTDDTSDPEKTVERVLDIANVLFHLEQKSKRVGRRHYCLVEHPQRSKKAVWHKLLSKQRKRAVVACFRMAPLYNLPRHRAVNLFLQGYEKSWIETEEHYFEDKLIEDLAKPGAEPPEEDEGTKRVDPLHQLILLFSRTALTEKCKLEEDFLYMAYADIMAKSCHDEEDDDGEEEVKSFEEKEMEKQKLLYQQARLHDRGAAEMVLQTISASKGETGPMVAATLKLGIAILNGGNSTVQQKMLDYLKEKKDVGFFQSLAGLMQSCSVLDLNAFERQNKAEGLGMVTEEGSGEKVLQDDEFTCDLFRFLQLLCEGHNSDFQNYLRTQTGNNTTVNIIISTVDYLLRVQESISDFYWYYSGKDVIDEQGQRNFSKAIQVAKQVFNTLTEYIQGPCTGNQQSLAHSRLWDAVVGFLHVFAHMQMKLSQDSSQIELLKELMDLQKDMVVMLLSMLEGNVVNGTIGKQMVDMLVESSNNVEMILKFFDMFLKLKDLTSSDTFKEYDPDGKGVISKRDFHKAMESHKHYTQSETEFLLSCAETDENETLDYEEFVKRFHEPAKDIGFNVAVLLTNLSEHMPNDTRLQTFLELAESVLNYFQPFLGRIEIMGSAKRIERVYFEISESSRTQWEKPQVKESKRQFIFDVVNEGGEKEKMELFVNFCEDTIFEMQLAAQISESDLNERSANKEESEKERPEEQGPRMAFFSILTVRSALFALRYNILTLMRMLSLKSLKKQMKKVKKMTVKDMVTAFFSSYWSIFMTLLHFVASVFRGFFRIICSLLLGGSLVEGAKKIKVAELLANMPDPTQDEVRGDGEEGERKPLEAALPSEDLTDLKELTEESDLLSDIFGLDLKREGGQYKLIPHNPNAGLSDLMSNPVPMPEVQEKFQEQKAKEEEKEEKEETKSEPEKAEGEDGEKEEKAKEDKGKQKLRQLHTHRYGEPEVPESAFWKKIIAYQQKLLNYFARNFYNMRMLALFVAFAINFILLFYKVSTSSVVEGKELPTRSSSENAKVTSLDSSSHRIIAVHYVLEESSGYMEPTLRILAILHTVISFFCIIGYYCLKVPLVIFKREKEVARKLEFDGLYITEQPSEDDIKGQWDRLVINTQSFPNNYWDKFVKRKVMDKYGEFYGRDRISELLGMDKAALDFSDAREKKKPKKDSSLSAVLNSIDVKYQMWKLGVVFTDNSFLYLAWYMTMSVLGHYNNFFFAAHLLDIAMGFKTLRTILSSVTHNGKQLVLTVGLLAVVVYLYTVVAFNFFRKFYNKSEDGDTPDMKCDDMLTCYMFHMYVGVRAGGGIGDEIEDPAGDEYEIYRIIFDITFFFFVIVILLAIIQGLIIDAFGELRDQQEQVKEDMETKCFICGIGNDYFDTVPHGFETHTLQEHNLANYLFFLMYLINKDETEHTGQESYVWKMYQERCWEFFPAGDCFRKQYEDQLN
# [4] = target: RyR2 (Homo sapiens, UniProt Q92736); conditions: cited from earlier work
# Sequence of RyR2 (Q92736 whole entry, species assumed): as the sequence (Q92736 whole entry) above
# [5] = target: cardiac RyR2 channels (Homo sapiens, UniProt Q92736); conditions: cited from earlier work
# Sequence of cardiac RyR2 channels (Q92736 whole entry): as above
# [6] = target: cardiac ryanodine receptor (RyR2) calcium channel from sheep heart SR vesicles (sheep, UniProt A0ACI6Q5I6 1-4956); assay: cell-based or functional assay
molecule,measurement,setting,value
"TRKSRLARGQKAKAKSEMRE [Peptide A1S, reference compound]",bilayers in which channel activity was reduced,[1]; 1 μM or 10 μM cis peptide,2 out of 2
same,cardiac RyR2 channel activity,[1]; 1 μM or 10 μM cis peptide,reduced cardiac RyR2 channel activity
"N.N.N.N.N.N.N.N.N.N.N.N.N.N.[Cl-].[Cl-].[Cl-].[Cl-].[Cl-].[Cl-].[O-2].[O-2].[Ru+3].[Ru+3].[Ru+4] [ruthenium red, reference compound]",effect on Ca2+ release,[2]; added after activating agents,terminated
same,effect on RyR channel,"[1]; 30 μM, end of experiment",block the channel
"TSAQKAKAEERKRRKMSRGL [SEQ ID NO: 2, 20-mer peptide (Thr671 to Leu690) of the II-III cytoplasmic loop of human skeletal muscle DHPR]","initial rate of Ca2+ release, peptide alone",[2],small increase
same,induction of Ca2+ release from cardiac SR,[3],not to induce
same,binding to RyR2,[4],binds
same,enhancement of [3H]ryanodine binding to cardiac RyR2 channels,[5],"not to induce Ca^2+ release from cardiac SR, or to enhance [^3H]ryanodine binding"
same,bilayer samples with similar activation and inhibition,[1],8 out of 8
same,lowest peptide concentration at which activation of cardiac RyR2 was observed,[1],1 nM
same,peptide concentration above which channel opening began to decline,[1]; +40 mV,above 100 nM
same,frequency of opening,"[1]; +40 mV and −40 mV, after peptide addition to cis chamber",higher frequency of opening
same,normalized mean current,"[1]; +40 mV, 10 nM peptide",doubled
same,channel activity,"[1]; +40 mV, 65 nM peptide",increased; also recorded: mostly in the open configuration
same,channel openings,"[1]; +40 mV, 10 μM peptide",only a few brief channel openings
same,channel configuration,"[1]; +40 mV, 32.5 μM peptide",mostly in the closed configuration
same,normalized mean current at higher peptide concentrations,"[1]; +40 mV, between about 10 μM and 50 μM peptide",fell dramatically
same,effect on cardiac RyR2 channel activity,[1]; +40 mV,increases and then decreases the activity
same,effect on cardiac RyR2 channel activity,"[1]; +40 mV, listed as 20-mer peptide",strong inhibition
same,duration of channel openings,"[1]; −40 mV, 10^−7M cis Ca, versus absence of peptide",prolonged channel openings
same,effect on cardiac RyR2 channel activity,[1]; −40 mV,increases the activity
same,effect on cardiac RyR2 channel activity,"[1]; −40 mV, listed as 20-mer peptide",significant activation
same,channel open probability (Po),"[1]; −40 mV, particularly at 65 nM peptide",high open probability
same,RyR2 channel activity,"[1]; −40 mV, peptide increased to 6.5 μM",fell slightly
same,channel openings,"[1]; −40 mV, within 10 s of adding 65 nM peptide",channel openings increased
"GLPDKTEEEKSVMAKKLEQK [peptide NB, non-specific peptide; the N-terminal portion of the B segment of the II-III loop, reference compound]",channel activity,"[1]; 1 μM or 10 μM cis peptide, +40 mV or −40 mV",no modified channel activity
TSAQKAKAEERKRRKMARDGL (TSAQKAKAEERKRRKMA[dR]GL) [SEQ ID NO: 10],Ca2+-activated Ca2+ release / caffeine-activated Ca2+ release,[2],also enhanced
same,"initial rate of Ca2+ release, peptide alone",[2],small increase
same,rate of Ca2+ release in the absence of activating Ca2+ or caffeine,[2],marginally enhanced
TSAQKAKAEERKRRKMARGL [SEQ ID NO: 8],"initial rate of Ca2+ release, peptide alone",[2],small increase
"Cn1c(=O)c2c(ncn2C)n(C)c1=O [caffeine, reference compound]",initial rate of Ca2+ release,"[2]; 2 mM caffeine, no peptide",10 μmoles of Ca^2+ per mg of SR protein per min
TSAQKAKAEERKRRKMSRDGL (TSAQKAKAEERKRRKMS[dR]GL) [SEQ ID NO: 9],Ca2+-activated Ca2+ release / caffeine-activated Ca2+ release,[2],also enhanced
same,"initial rate of Ca2+ release, peptide alone",[2],small increase
same,rate of Ca2+ release in the absence of activating Ca2+ or caffeine,[2],marginally enhanced
same,channel activity (relative mean current),[1]; 100 nM cis Ca2+,clearly enhanced
same,channel activity,"[1]; 100 nM cis Ca2+, 10 nM peptide",significant increase in activity
same,relative mean current at higher peptide concentrations,"[1]; 100 nM cis Ca2+, 1 and 10 μM peptide, +40 mV",fall
same,peptide concentration at which depression was seen,"[1]; 100 nM cis Ca2+, +40 mV",> 100 nM
same,increase in relative mean current,"[1]; 100 nM cis Ca2+, both positive and negative potentials",10-20 fold
same,channel activity (relative mean current),[1]; 100 μM cis Ca2+,failed to activate channels; also recorded: clearly depressed
same,peptide concentration of maximum effect (depression),[1]; 100 μM cis Ca2+,100 nM
same,voltage dependence of reduction in channel activity,[1]; 100 μM cis Ca2+,greater at +40 mV than −40 mV; also recorded: significantly greater at +40 mV
same,frequency of events,[1]; +40 mV and −40 mV,corresponding increase
same,effect at high peptide concentrations,"[1]; +40 mV, voltage- and Ca2+-dependent",blocked the channel pore
same,peptide concentrations enhancing cardiac RyR activity in lipid bilayer,[1]; low concentrations,1 to 10 nM
TSAQKAKAEERKRRKMS[dR]GL [SEQ ID NO: 9 peptide (20-mer of SEQ ID NO: 2 with Arg688 replaced by the D isomer of arginine)],mean closed time at +40 mV (decrease),[6],80 fold
same,mean closed time at -40 mV (decrease),[6],170 fold
same,mean open time at both potentials (increase),[6],8 fold
same,open probability at +40 mV (increase),[6],~10 fold
same,open probability at -40 mV (increase),[6],~50 fold
TSAQKAKAEERKRRKMSRGL [20-mer peptide of the II-III cytoplasmic loop of skeletal DHPR alpha-1 subunit (Thr671 to Leu690)],"mean current (I'p/I'c) at 10 nM peptide, -40 mV or +40 mV",[6],~2 fold
same,mean current at -40 mV (increase in 50 µM peptide),[6],4 fold
